Here are results for 23 compounds from ChEMBL document CHEMBL3352370, “Substrate derived peptidic α-ketoamides as inhibitors of the malarial protease PfSUB1” (Bioorg Med Chem Lett, 2014).

Numbered stars: 1 amine (or outer) side, 2 acyl side, 3 side chain; on linkers, the order of the positions; unused ones are H or OH. Square brackets hold non-standard residues; d marks the D form. Peptide text beside a SMILES is read from it. ξ: configuration not given here. ξ3Amino2oxobutanoyl = CC(N[*:1])C(=O)C(=O)[*:2]; GABA = NCCCC(=O)O; βAla = NCCC(=O)O Where only a bound is given, the exact number is not on record here.

The test addresses T1, Subtilisin-like protease 1 (Plasmodium falciparum, UniProt O61142).
T1 sequence (O61142 whole entry): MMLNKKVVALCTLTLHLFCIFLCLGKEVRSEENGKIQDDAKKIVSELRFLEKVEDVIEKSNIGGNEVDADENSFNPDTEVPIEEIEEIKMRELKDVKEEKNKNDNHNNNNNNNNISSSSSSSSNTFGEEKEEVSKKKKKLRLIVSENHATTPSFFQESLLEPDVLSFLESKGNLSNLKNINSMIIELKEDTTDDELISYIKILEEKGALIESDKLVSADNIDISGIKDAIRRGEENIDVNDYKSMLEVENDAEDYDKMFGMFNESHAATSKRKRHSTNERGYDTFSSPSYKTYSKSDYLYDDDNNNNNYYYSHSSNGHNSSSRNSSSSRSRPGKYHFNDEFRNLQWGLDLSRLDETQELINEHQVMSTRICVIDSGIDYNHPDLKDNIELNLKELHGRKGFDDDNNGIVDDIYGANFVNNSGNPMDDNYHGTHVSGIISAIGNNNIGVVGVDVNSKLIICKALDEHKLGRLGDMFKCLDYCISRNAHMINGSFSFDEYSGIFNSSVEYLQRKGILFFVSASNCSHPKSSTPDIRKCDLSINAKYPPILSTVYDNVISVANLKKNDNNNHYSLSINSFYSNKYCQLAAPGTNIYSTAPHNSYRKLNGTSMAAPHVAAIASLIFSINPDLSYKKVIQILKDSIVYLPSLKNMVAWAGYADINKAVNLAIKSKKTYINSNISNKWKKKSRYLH
In words: Inhibition of Plasmodium falciparum SUB1.
For orientation: Ki means the dissociation constant of the complex between target and ligand, obtained from inhibition or displacement. A higher Ki goes with lower affinity. In turn, `O=C(Nc1ccc(-c2nc3cc(NC(=O)c4ccccc4)ccc3[nH]2)cc1)c1ccccc1` showed an inhibition constant (Ki) of 8 µM.
A word on the IC50: it is the concentration at which inhibition is half-maximal. Low values mean greater potency, high ones weaker potency. `Oc1ccc(C2Oc3c(c(O)cc4c3C3c5c(O)cc(O)c(O)c5OC(c5ccc(O)c(O)c5)(O4)C3O)CC2O)cc1O` (stereo not drawn) came in with an IC50 of 0.3 µM.
On the same count and under the same terms, to `O=C(CCCCCNC(=O)CCCC[C@@H]1SC[C@@H]2NC(=O)N[C@@H]21)NCCCCCC(=O)Nc1ccc2c(Cl)c(OCCc3ccccc3)oc(=O)c2c1` belongs 18 µM.
`COc1ccc(Nc2cc(C)c3cc(NC(=O)c4cc5ccccc5[nH]4)ccc3n2)cc1`: the affinity corresponds to a Ki of 6 µM.
In turn, `CC[C@H](C)[C@H](NC(C)=O)C(=O)N[C@H](C(=O)N[C@@H](C)C(=O)NC(C)C(=O)C(=O)NCCC(=O)O)[C@@H](C)O` (stereo partly drawn) showed an IC50 of 2.5 µM.
Still for that read-out and setting: to `CC[C@H](C)[C@H](NC(C)=O)C(=O)N[C@H](C(=O)NC(C)(C)C(=O)NC(C)C(=O)C(=O)NCCC(=O)O)[C@@H](C)O` (stereo partly drawn) belongs more than 50 µM; to `CC[C@H](C)[C@H](NC(C)=O)C(=O)N[C@H](C(=O)NC1(C(=O)NC(C)C(=O)C(=O)NCCC(=O)O)CC1)[C@@H](C)O` (stereo partly drawn), more than 50 µM; to `CC[C@H](C)[C@H](NC(C)=O)C(=O)N[C@H](C(=O)NCC(=O)NC(C)C(=O)C(=O)NCCC(=O)O)[C@@H](C)O` (stereo partly drawn), 0.9 µM.
Same read-out and setting: to `CC[C@H](C)[C@H](NC(C)=O)C(=O)N[C@@H](C)C(=O)N[C@@H](C)C(=O)NC(C)C(=O)C(=O)NCCC(=O)O` (stereo partly drawn) belongs 30 µM; to `CC(=O)N[C@@H](C)C(=O)N[C@H](C(=O)NCC(=O)NC(C)C(=O)C(=O)NCCC(=O)O)[C@@H](C)O` (stereo partly drawn), more than 50 µM; to `CC[C@H](C)[C@H](NC(C)=O)C(=O)N[C@H](C(=O)N[C@@H](C)C(=O)NC(Cc1ccccc1)C(=O)C(=O)NCCC(=O)O)[C@@H](C)O` (stereo partly drawn), 100 µM.
On the same count and under the same terms, for `CC[C@H](C)[C@H](NC(C)=O)C(=O)N[C@H](C(=O)N[C@@H](C)C(=O)NC(C(=O)C(=O)NCCC(=O)O)C(C)C)[C@@H](C)O` (stereo partly drawn) the value was 20 µM; for `CC[C@H](C)[C@H](NC(C)=O)C(=O)N[C@H](C(=O)N[C@@H](C)C(=O)NC(C(=O)C(=O)NCCC(=O)O)c1ccccc1)[C@@H](C)O` (stereo partly drawn), more than 50 µM; for `CC[C@H](C)[C@H](NC(C)=O)C(=O)N[C@H](C(=O)N[C@@H](C)C(=O)NC(CCC(=O)O)C(=O)C(=O)NCCC(=O)O)[C@@H](C)O` (stereo partly drawn), 5 µM.
Compound `CC[C@H](C)[C@H](NC(C)=O)C(=O)N[C@H](C(=O)N[C@@H](C)C(=O)NC(CCC(=O)N(C)C)C(=O)C(=O)NCCC(=O)O)[C@@H](C)O` (stereo partly drawn) had a concentration for half-maximal inhibition (IC50) of more than 50 µM.
On the same count and under the same terms, for `CC[C@H](C)[C@H](NC(C)=O)C(=O)N[C@H](C(=O)N[C@@H](C)C(=O)NC(C[C@@H]1CCNC1=O)C(=O)C(=O)NCCC(=O)O)[C@@H](C)O` (stereo partly drawn) the value was more than 50 µM; for `CCC(NC(=O)CNC(=O)[C@@H](NC(=O)[C@@H](NC(C)=O)[C@@H](C)CC)[C@@H](C)O)C(=O)C(=O)NCCC(=O)O` (stereo partly drawn), 1.2 µM; for `CC[C@H](C)[C@H](NC(C)=O)C(=O)N[C@H](C(=O)NCC(=O)NC(C(=O)C(=O)NCCC(=O)O)C(C)C)[C@@H](C)O` (stereo partly drawn), 4.5 µM.
As to `CC[C@@H](C)[C@H](NC(=O)[C@H](CCCCN)NC(C)=O)C(=O)N[C@H](C(=O)N[C@@H](C)C(=O)NC(CCC(N)=O)C(=O)C(=O)NCCC(=O)O)[C@@H](C)O` (stereo partly drawn), the IC50 stood at 7 µM.
`CC[C@H](C)[C@H](NC(=O)[C@H](CCCCN)NC(C)=O)C(=O)N[C@H](C(=O)N[C@@H](C)C(=O)NC(C)C(=O)C(=O)NCC(=O)O)[C@@H](C)O` (stereo partly drawn) (Ac-KITA[ξ3Amino2oxobutanoyl]G-OH) yielded an IC50 of 10 µM.
On the same count and under the same terms, to `CC[C@H](C)[C@H](NC(=O)[C@H](CCCCN)NC(C)=O)C(=O)N[C@H](C(=O)N[C@@H](C)C(=O)NC(C)C(=O)C(=O)NCCCC(=O)O)[C@@H](C)O` (stereo partly drawn) (Ac-KITA[ξ3Amino2oxobutanoyl][GABA]-OH) belongs 3.1 µM.
Same read-out and setting: for `CC[C@H](C)[C@H](NC(=O)[C@H](CCCCN)NC(C)=O)C(=O)N[C@H](C(=O)N[C@@H](C)C(=O)NC(C)C(=O)C(=O)NCCC(N)=O)[C@@H](C)O` (stereo partly drawn) (Ac-KITA[ξ3Amino2oxobutanoyl][βAla]-NH2) the value was 38 µM.
As for `CC[C@H](C)[C@H](NC(=O)[C@H](CCCCN)NC(C)=O)C(=O)N[C@H](C(=O)N[C@@H](C)C(=O)NC(C)C(=O)C(=O)NCCC(=O)O)[C@@H](C)O` (stereo partly drawn) (Ac-KITA[ξ3Amino2oxobutanoyl][βAla]-OH), the IC50 turned out to be 1 µM.
